# Laboratory results from patent publication US12336991B2, “Factor XIIA inhibitors” (UNIVERSITY OF LEEDS, priority 2018, dated 2025).
# How the values were obtained:
# Type in all cases: biochemical
# FXIIa = target: T1, FXIIa (Homo sapiens, UniProt P00748); test: Determination of Factor XIIa inhibition, chromogenic substrate S-2302 assay; conditions: human FXIIa alpha
# T1 sequence (P00748 373-615 limits assumed): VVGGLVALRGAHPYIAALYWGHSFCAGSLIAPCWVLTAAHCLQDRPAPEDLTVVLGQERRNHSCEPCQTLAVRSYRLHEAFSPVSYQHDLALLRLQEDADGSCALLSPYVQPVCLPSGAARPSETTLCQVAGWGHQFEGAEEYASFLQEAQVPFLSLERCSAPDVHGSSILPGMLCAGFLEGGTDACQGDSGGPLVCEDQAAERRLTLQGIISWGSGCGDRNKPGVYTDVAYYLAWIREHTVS
# T1 sequence (P00748 20-372 partner limits assumed): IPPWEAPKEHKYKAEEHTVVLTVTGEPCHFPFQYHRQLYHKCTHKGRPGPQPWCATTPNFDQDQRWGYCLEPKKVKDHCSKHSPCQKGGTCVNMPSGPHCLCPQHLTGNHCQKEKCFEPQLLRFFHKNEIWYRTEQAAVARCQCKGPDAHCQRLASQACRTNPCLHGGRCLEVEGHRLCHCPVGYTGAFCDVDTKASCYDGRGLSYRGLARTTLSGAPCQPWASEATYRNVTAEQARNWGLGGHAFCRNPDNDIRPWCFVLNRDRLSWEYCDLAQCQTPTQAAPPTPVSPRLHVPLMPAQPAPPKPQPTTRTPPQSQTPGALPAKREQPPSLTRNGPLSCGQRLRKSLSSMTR
# Experimental: (§1) The activities of the compounds of the invention have been determined in vitro using the following assays protocols for the screening of activity of FXIIa and other proteases. Each of these assays were performed in a purified system employing the use of chromogenic assays in microplate plate wells. Chromogenic peptide substrates mimicking natural protein substrates are attached via an amide bond to a chromogenic group. Paranitroaniline (pNA) is released from the peptide following catalyses by the proteolytic enzyme; the absorbance increases and can be monitored at 405 nm.
# (§2) All compounds were dissolved in 100% (v/v) DMSO to a stock concentration of 10 mM, the highest concentration of compound used in each assay is 500 μM. The final concentrations of DMSO were 5% (v/v) in 50 mM Tris 137 mM NaC pH 7.4. Where no test compound was added a final concentration of 5% DMSO was employed.
# Determination of Factor XIa Inhibition
# Factor XIa activity was measured using a chromogenic substrate S-2302 (Chromogenix). Various concentrations of compound were incubated with 10 nM of FXIIa and incubated at 37° C. for 10 minutes in 50 mM Tris, 137 mM NaCl, pH 7.4, prior to the addition of a final concentration of 450 µM S-2302 chromogenic substrate. Kinetic readings at 405 nm were monitored every 12 secs for a total duration of 3 hours at 37° C. Gradients of initial rates were determined and employed to calculate IC50 values. Values of IC50 were converted to Ki values based on the formula: Ki=IC50/(1+[Substrate]/Km).
# The activity of the compounds of the invention has been categorised based on the Ki values, the categories being “*”, “**” and “***”. […] The category “**” refers to compounds with a Ki value of 0.2 μM to 2 μM.
# thrombin = target: T2, thrombin (Homo sapiens, UniProt P00734); test: Determination of selectivity: thrombin inhibition, chromogenic substrate GPR assay; conditions: fold selectivity for FXIIa over thrombin
# T2 construct: FXa (5 nM) and thrombin (5 nM)
# Experimental: as §1, §2
# (§3) Determination of Selectivity
# (§4) To determine selectivity of test compounds, these test compounds were assayed for inhibitory activity against other serine proteases including FXa and thrombin. Essentially compounds at increasing concentrations were incubated with each enzyme: FXa (5 nM) and thrombin (5 nM), for 10 mins at 37° C. followed the appropriate chromogenic substrate, S2765 ([…]), and GPR ([…]) respectively in 50 mM Tris, 137 mM NaCl, pH 7.4. Chromogenic substrates S2765 was from Chromogenix, and GPR from Bachem. Kinetic readings at 405 nm were monitored every 12 secs for a total duration of 3 hours at 37° C. Gradients of initial rates were determined and employed to calculate IC50 values. Values of IC50 were converted to Ki values based on the formula: Ki=IC50/(1+[Substrate]/Km)
# (§5) Where [Substrate] denotes the concentration of substrate used in the assay and Km is the determined value of each enzyme with its own substrate.
# (§6) The fold selectivity for FXIIa over thrombin for the compounds of the invention has been categorised based on the fold selectivity values, the categories being “+”, “++” and “+++”. The category “+” refers to fold selectivity values less than 10. The category “++” refers to a fold selectivity value of 10 to 100. The category “+++” refers to fold selectivity values greater than 100.
# FXa = FXa (Homo sapiens, UniProt P00742); test: Determination of selectivity: FXa inhibition, chromogenic substrate S2765 assay; conditions: fold selectivity for FXIIa over FXa
# Experimental: as §1, §2, §3, §4, §5, §6
# The fold selectivity for FXIIa over FXa for the compounds of the invention has been categorised based on the fold selectivity values, the categories being “o”, “oo” and “ooo”. The category “o” refers to fold selectivity values less than 10. The category “oo” refers to a fold selectivity value of 10 to 100. The category “ooo” refers to fold selectivity values greater than 100.
# Chain of FXa (P00742 235-488 limits assumed): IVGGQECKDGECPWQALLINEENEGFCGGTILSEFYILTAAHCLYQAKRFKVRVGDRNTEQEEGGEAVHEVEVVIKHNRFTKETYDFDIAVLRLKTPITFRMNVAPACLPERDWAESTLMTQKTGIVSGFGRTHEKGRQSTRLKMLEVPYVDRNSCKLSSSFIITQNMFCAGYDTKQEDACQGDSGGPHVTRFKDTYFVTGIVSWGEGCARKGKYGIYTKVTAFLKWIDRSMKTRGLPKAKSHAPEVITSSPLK
# Chain of FXa (P00742 41-179 partner limits assumed): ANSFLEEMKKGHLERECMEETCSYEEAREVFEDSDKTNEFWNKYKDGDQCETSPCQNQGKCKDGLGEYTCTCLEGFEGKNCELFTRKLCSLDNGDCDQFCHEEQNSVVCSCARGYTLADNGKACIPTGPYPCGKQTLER
Compound,Ki (FXIIa) [µM],Thrombin (human)/FXIIa alpha (human) (thrombin),FXa (human)/FXIIa alpha (human) (FXa)
COc1ccc(C[C@@H]2C[C@@H](C(=O)NCc3ccc4c(c3)nnn4C)N(C(=O)[C@H](N)CCC(=O)N3C4CCC3COC4)C2)cc1 [Example M05411],0.2 to 2,+++ (fold selectivity values greater than 100),∘∘∘
NCc1ccc(CNC(=O)[C@@H]2C[C@@H](Cc3ccc(Cl)cc3)CN2C(=O)[C@H](N)CCc2ccccc2)cc1 [Example M05117],0.2 to 2,++ (fold selectivity value of 10 to 100),∘∘∘
Cn1nnc2cc(CNC(=O)[C@@H]3C[C@H](c4ccc(F)cc4)CN3C(=O)[C@H](N)CCc3ccccc3)ccc21 [Example M05157],> 2,++ (fold selectivity value of 10 to 100),∘∘
COc1ccc(C[C@@H]2C[C@@H](C(=O)NCc3ccc4c(c3)nnn4C)N(C(=O)[C@H]3C[C@@H](c4ccccc4)CN3)C2)cc1 [Example M05289],0.2 to 2,+++ (fold selectivity values greater than 100),∘∘∘
COc1ccc(C[C@@H]2C[C@@H](C(=O)NCc3ccc4c(c3)nnn4C)N(C(=O)[C@H]3C[C@@H](c4ncccn4)CN3)C2)cc1 [Example M05387],0.2 to 2,+++ (fold selectivity values greater than 100),∘∘∘
"Cn1nnc2cc(CNC(=O)[C@@H]3C[C@H](N4CCN(Cc5ccccc5)CC4)CN3C(=O)[C@H](N)CCc3ccccc3)ccc21 [Example M05200, (2S,4S)-1-((R)-2-Amino-4-phenyl-butyryl)-4-(4-benzyl-piperazin-1-yl)-pyrrolidine-2-carboxylic acid (1-methyl-1H-benzotriazol-5-ylmethyl)-amide]",> 2,++ (fold selectivity value of 10 to 100),∘∘
Cn1ncc2cc(CNC(=O)[C@@H]3C[C@@H](Cc4cccnc4)CN3C(=O)[C@H](N)CCC(=O)N3CCCC3)ccc21 [Example M05228],0.2 to 2,+++ (fold selectivity values greater than 100),∘∘∘
COc1ccc(C[C@@H]2C[C@@H](C(=O)NCc3ccc4c(Cl)nn(C)c4c3)N(C(=O)[C@H](N)CCC(=O)N3CCCC3)C2)cc1 [Example M05449],< 0.2,+++ (fold selectivity values greater than 100),∘∘∘
COc1ccc(C[C@@H]2C[C@@H](C(=O)NCc3ccc4c(c3)nnn4C)N(C(=O)[C@H](N)CCC(=O)N3CCC[C@H]3C(C)C)C2)cc1 [Example M05407],< 0.2,+++ (fold selectivity values greater than 100),∘∘∘
COc1ccc(C[C@@H]2C[C@@H](C(=O)NCc3cc4ccncc4[nH]3)N(C(=O)[C@H](N)CCc3ccccc3)C2)cc1 [Example M00954],< 0.2,+ (fold selectivity values less than 10),∘∘∘
Cn1nnc2cc(CNC(=O)[C@@H]3C[C@@H](Cc4cccc5c4CCO5)CN3C(=O)[C@H](N)CCC(=O)N3CCCC3)ccc21 [Example M05380],0.2 to 2,+++ (fold selectivity values greater than 100),∘∘∘
"N#C[C@@H]1C[C@@H](C(=O)NCc2ccc(CN)cc2)N(C(=O)[C@H](N)CCc2ccccc2)C1 [Example M05091, (2S,4R)-1-((R)-2-Amino-4-phenyl-butyryl)-4-cyano-pyrrolidine-2-carboxylic acid 4-aminomethyl-benzylamide]",> 2,+ (fold selectivity values less than 10),∘∘
"Cn1nnc2cc(CNC(=O)[C@@H]3C[C@@H](Cc4ccncc4)CN3C(=O)[C@@H](CCC(=O)N3CCCC3)NC(=O)Cc3ccccc3)ccc21 [Example M05267, (2S,4R)-1-((R)-5-Oxo-2-phenylacetylamino-5-pyrrolidin-1-yl-pentanoyl)-4-pyridin-4-ylmethyl-pyrrolidine-2-carboxylic acid (1-methyl-1H-benzotriazol-5-ylmethyl)-amide]",> 2,++ (fold selectivity value of 10 to 100),∘∘
COc1ccc(C[C@@H]2C[C@@H](C(=O)NCc3ccc4c(c3)nnn4C)N(C(=O)[C@H]3C[C@@H](N4CCCCC4)CN3)C2)cc1 [Example M00955],0.2 to 2,+++ (fold selectivity values greater than 100),∘∘∘

# Other lines, results leading:
Ki (FXIIa) [µM],Thrombin (human)/FXIIa alpha (human) (thrombin),FXa (human)/FXIIa alpha (human) (FXa),Compound
> 2,++ (fold selectivity value of 10 to 100),∘∘,NCc1ccc(CNC(=O)[C@@H]2C[C@H](O)CN2C(=O)[C@H](N)CCc2ccccc2)cn1 [Example M05054]
> 2,++ (fold selectivity value of 10 to 100),∘∘,Cn1nnc2cc(CNC(=O)[C@@H]3C[C@H](NCCc4ccccc4)CN3C(=O)[C@H](N)CCc3ccccc3)ccc21 [Example M05205]
> 2,++ (fold selectivity value of 10 to 100),∘∘∘,Cn1nnc2cc(CNC(=O)[C@@H]3C[C@@H](Cc4ccncc4)CN3C(=O)[C@H]3C[C@@H](c4ccccc4)CN3)ccc21 [Example M05288]
> 2,+ (fold selectivity values less than 10),∘∘,NCc1ccc(CNC(=O)[C@@H]2CCCN2C(=O)[C@H](N)CCC(=O)N2CC=CC2)cc1 [Example M00922]
> 2,++ (fold selectivity value of 10 to 100),∘∘,COc1ccc(C[C@@H]2C[C@@H](C(=O)NCc3cc4cccnc4[nH]3)N(C(=O)[C@H](N)CCC(=O)N3CCCC3)C2)cc1 [Example M05401]
0.2 to 2,+ (fold selectivity values less than 10),∘∘∘,COc1cc(CNC(=O)[C@@H]2C[C@@H](C)CN2C(=O)[C@H](N)CCc2ccccc2)ccc1CN [Example M05074]
> 2,++ (fold selectivity value of 10 to 100),∘∘,COc1ccc(C[C@@H]2C[C@@H](C(=O)NCc3ccc4c(c3)nnn4C)N(C(=O)C3NCCc4cc(O)ccc43)C2)cc1 (stereo partly drawn) [Example M05429]
> 2,+ (fold selectivity values less than 10),∘∘,NCc1ccc(CNC(=O)[C@@H]2CCCN2C(=O)[C@H](N)CCc2cccnc2)cc1 [Example M00808]
